Measured values reported in PubChem BioAssay AID248 (DTP/NCI, 2004).
Where “and” joins values, the source holds several entries; their conditions need not be identical. Equal values may be shown once. Toxic doses and inconclusive results are not listed. Cut-off read from the data, not from the text of the source: active = T/C of 150% or more; inactive = T/C below 125%.

System: L1210 leukemia ip in BDF1 mice, survival T/C
Experiment: NCI In Vivo Anticancer Drug Screen. Data for tumor model L1210 Leukemia (intraperitoneal) in B6D2F1 (BDF1) mice
Settings: endpoint: mean survival time, higher = longer survival
Procedure, shortened: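 Mice bearing the transplanted tumor received compound or vehicle. Survival of the treated group was divided by that of the vehicle-treated control group to give the ratio.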

[1] = dose: 6.25 mg/kg/injection, schedule: Q01DX009 (ip), vehicle: saline
[2] = dose: 100.0 mg/kg/injection, schedule: Q01DX001 (ip), vehicle: other
[3] = dose: 200.0 mg/kg/injection, schedule: Q01DX001 (ip), vehicle: other
[4] = dose: 400.0 mg/kg/injection, schedule: Q01DX001 (ip), vehicle: other
[5] = dose: 100.0 mg/kg/injection, schedule: Q01DX009 (ip), vehicle: saline with Tween-80
[6] = dose: 200.0 mg/kg/injection, schedule: Q01DX009 (ip), vehicle: saline with Tween-80
[7] = dose: 400.0 mg/kg/injection, schedule: Q01DX009 (ip), vehicle: saline with Tween-80
[8] = dose: 100.0 mg/kg/injection, schedule: Q04DX003 (ip), vehicle: saline with Tween-80
[9] = dose: 200.0 mg/kg/injection, schedule: Q04DX003 (ip), vehicle: saline with Tween-80
[10] = dose: 400.0 mg/kg/injection, schedule: Q04DX003 (ip), vehicle: saline with Tween-80
[11] = dose: 100.0 mg/kg/injection, schedule: Q01DX001 (ip), vehicle: saline
[12] = dose: 200.0 mg/kg/injection, schedule: Q01DX001 (ip), vehicle: saline
[13] = dose: 400.0 mg/kg/injection, schedule: Q01DX001 (ip), vehicle: saline
[14] = dose: 100.0 mg/kg/injection, schedule: Q04DX003 (ip), vehicle: Klucel (hydroxypropylcellulose) (HPC)
[15] = dose: 200.0 mg/kg/injection, schedule: Q04DX003 (ip), vehicle: Klucel (hydroxypropylcellulose) (HPC)
[16] = dose: 25.0 mg/kg/injection, schedule: Q04DX003 (ip), vehicle: saline
[17] = dose: 50.0 mg/kg/injection, schedule: Q04DX003 (ip), vehicle: saline
[18] = dose: 100.0 mg/kg/injection, schedule: Q04DX003 (ip), vehicle: saline

Measured: T/C

CCC[CH2][Sn](=[S])[CH2]CCC
inactive: dose: 0.69 mg/kg/injection, schedule: Q01DX009 (ip), vehicle: other 98 % of control | dose: 0.78 mg/kg/injection, schedule: Q01DX009 (ip), vehicle: saline 93 % of control | dose: 1.04 mg/kg/injection, schedule: Q01DX009 (ip), vehicle: other 95 % of control | dose: 1.56 mg/kg/injection, schedule: Q01DX009 (ip), vehicle: other 96 % of control | dose: 1.56 mg/kg/injection, schedule: Q01DX009 (ip), vehicle: saline 112 % of control | dose: 2.34 mg/kg/injection, schedule: Q01DX009 (ip), vehicle: other 107 % of control | dose: 3.12 mg/kg/injection, schedule: Q01DX009 (ip), vehicle: saline 114 % of control | dose: 3.13 mg/kg/injection, schedule: Q01DX009 (ip), vehicle: other 105 % of control | [1] 122 % of control | dose: 12.5 mg/kg/injection, schedule: Q01DX009 (ip), vehicle: other 88 % of control | dose: 12.5 mg/kg/injection, schedule: Q04DX003 (ip), vehicle: other 98 % of control | dose: 100.0 mg/kg/injection, schedule: Q01DX001 (ip), vehicle: carboxymethylcellulose (CMC) 115 % of control | dose: 200.0 mg/kg/injection, schedule: Q01DX001 (ip), vehicle: carboxymethylcellulose (CMC) 102 % of control | dose: 400.0 mg/kg/injection, schedule: Q01DX001 (ip), vehicle: carboxymethylcellulose (CMC) 86 % of control

NC(N)=NNC=NCCc1ccc(O)cc1
inactive: dose: 15.0 mg/kg/injection, schedule: Q01DX Z (ip), vehicle: carboxymethylcellulose (CMC) 107 % of control | dose: 30.0 mg/kg/injection, schedule: Q01DX Z (ip), vehicle: carboxymethylcellulose (CMC) 98 % of control | dose: 60.0 mg/kg/injection, schedule: Q01DX Z (ip), vehicle: carboxymethylcellulose (CMC) 101 % of control | dose: 120.0 mg/kg/injection, schedule: Q01DX Z (ip), vehicle: carboxymethylcellulose (CMC) 103 % of control

O=C(/C(Br)=C/c1ccccc1)c1ccccc1
inactive: dose: 50.0 mg/kg/injection, schedule: Q01DX009 (ip), vehicle: other 103 % of control | dose: 100.0 mg/kg/injection, schedule: Q01DX009 (ip), vehicle: other 105 % of control | dose: 200.0 mg/kg/injection, schedule: Q01DX009 (ip), vehicle: other 100 % of control

C[N+]1(CCNC2=CC(=O)C(NCC[N+]3(C)CCOCC3)=CC2=O)CCOCC1
inactive: dose: 5.0 mg/kg/injection, schedule: Q01DX001 (ip), vehicle: saline 103 % of control | dose: 10.0 mg/kg/injection, schedule: Q01DX001 (ip), vehicle: saline 101 % of control | dose: 20.0 mg/kg/injection, schedule: Q01DX001 (ip), vehicle: saline 101 % of control | dose: 40.0 mg/kg/injection, schedule: Q01DX001 (ip), vehicle: saline 101 % of control | dose: 80.0 mg/kg/injection, schedule: Q01DX001 (ip), vehicle: saline 97 % of control

O=C1C(=O)c2ccccc2C(O)=C1C(CCc1ccccc1)C1=C(O)c2ccccc2C(=O)C1=O
inactive: dose: 75.0 mg/kg/injection, schedule: Q01DX001 (ip), vehicle: carboxymethylcellulose (CMC) 106 % of control | dose: 75.0 mg/kg/injection, schedule: Q01DX001 (ip), vehicle: saline 96 % of control | dose: 150.0 mg/kg/injection, schedule: Q01DX001 (ip), vehicle: saline 94 % of control

O=C(O)C(CS)NS(=O)(=O)Cc1ccccc1 (centres undefined)
inactive: [2] 104 % of control | [3] 94 % of control | [4] 100 % of control

CCCNC(=O)Oc1c(C(C)C)ccc(C)c1Cl
inactive: [5] 108 % of control | [6] 88 % of control | [7] 95 % of control

CCCCCCC(O)C/C=C/CCCCCCCC(=O)O (centres undefined)
inactive: dose: 100.0 mg/kg/injection, schedule: Q04DX002 (ip), vehicle: Klucel (hydroxypropylcellulose) (HPC) 96 % of control | dose: 200.0 mg/kg/injection, schedule: Q04DX002 (ip), vehicle: Klucel (hydroxypropylcellulose) (HPC) 93 % of control | dose: 400.0 mg/kg/injection, schedule: Q04DX002 (ip), vehicle: Klucel (hydroxypropylcellulose) (HPC) 86 % of control

CC(C)CCS(=O)c1ccccc1 (centres undefined)
inactive: dose: 75.0 mg/kg/injection, schedule: Q01DX001 (ip), vehicle: acetone 91 % of control | dose: 75.0 mg/kg/injection, schedule: Q04DX003 (ip), vehicle: acetone 100 % of control | dose: 150.0 mg/kg/injection, schedule: Q01DX001 (ip), vehicle: acetone 100 % of control | dose: 150.0 mg/kg/injection, schedule: Q04DX003 (ip), vehicle: acetone 97 % of control | dose: 300.0 mg/kg/injection, schedule: Q01DX001 (ip), vehicle: acetone 98 % of control | dose: 300.0 mg/kg/injection, schedule: Q04DX003 (ip), vehicle: acetone 89 % of control

II
inactive: dose: 12.0 mg/kg/injection, schedule: Q01DX009 (ip), vehicle: acetone 96 % of control | dose: 25.0 mg/kg/injection, schedule: Q01DX009 (ip), vehicle: acetone 93 % of control | dose: 50.0 mg/kg/injection, schedule: Q01DX009 (ip), vehicle: acetone 106 % of control

CC(=O)OCC1OC(n2cnc3c(C)nc(F)nc32)C(OC(C)=O)C1OC(C)=O (centres undefined)
inactive: dose: 50.0 mg/kg/injection, schedule: Q01DX001 (ip), vehicle: other 105 % of control | [2] 113 % of control | [3] 103 % of control | [4] 108 % of control

O=[N+]([O-])c1cccc(/C=C/C=C/c2ccc(S(=O)(=O)F)cc2Cl)c1
inactive: [5] 100 % of control | [8] 94 % of control | [6] 93 % of control | [9] 95 % of control | [7] 91 % of control | [10] 90 % of control

NC(N)=NS(=O)(=O)c1ccc(C(N)=NC2CCCCC2)cc1
inactive: [11] 96 % of control | [12] 96 % of control | [13] 90 % of control

CCCCCCSCCO
inactive: [11] 94 % of control | [12] 94 % of control | [13] 93 % of control

O=S(=O)(/N=C1C=C/C(=N/S(=O)(=O)c2ccccc2)C2C3C=CC(C3)C/12)c1ccccc1 (centres undefined)
inactive: dose: 100.0 mg/kg/injection, schedule: Q01DX009 (ip), vehicle: Klucel (hydroxypropylcellulose) (HPC) 109 % of control | [14] 94 % of control | dose: 200.0 mg/kg/injection, schedule: Q01DX009 (ip), vehicle: Klucel (hydroxypropylcellulose) (HPC) 103 % of control | [15] 97 % of control | dose: 400.0 mg/kg/injection, schedule: Q01DX009 (ip), vehicle: Klucel (hydroxypropylcellulose) (HPC) 95 % of control | dose: 400.0 mg/kg/injection, schedule: Q04DX003 (ip), vehicle: Klucel (hydroxypropylcellulose) (HPC) 92 % of control

CC1(C)COP(=O)(O)OC1
inactive: dose: 50.0 mg/kg/injection, schedule: Q01DX009 (ip), vehicle: saline with Tween-80 105 % of control | [11] 101 % of control | [5] 96 % of control | [12] 93 % of control | [6] 91 % of control

CN1CCCCC1CCN1c2ccccc2Sc2ccc(S(C)=O)cc21 (centres undefined)
inactive: [1] 97 % of control | dose: 12.5 mg/kg/injection, schedule: Q01DX009 (ip), vehicle: saline 98 % of control and 101 % of control and 108 % of control | dose: 25.0 mg/kg/injection, schedule: Q01DX009 (ip), vehicle: saline 100 % of control and 101 % of control (2×) | [16] 112 % of control | dose: 50.0 mg/kg/injection, schedule: Q01DX009 (ip), vehicle: saline 119 % of control | [17] 115 % of control | [18] 105 % of control

Cc1cn[nH]c1-c1ccccc1
inactive: dose: 50.0 mg/kg/injection, schedule: Q04DX003 (ip), vehicle: Klucel (hydroxypropylcellulose) (HPC) 107 % of control | [14] 104 % of control | [15] 94 % of control

S=P(S)(c1ccccc1)c1ccccc1
inactive: [8] 91 % of control | [9] 94 % of control | [10] 100 % of control

CCCCCCCCCCCCCCCCCCN1CNC(=O)NC1
inactive: [14] 93 % of control | [15] 101 % of control

Cc1n(CCBr)c([N+](=O)[O-])c[n+]1C1N=C(c2ccccc2)c2cc(Cl)ccc2NC1=O (centres undefined)
inactive: [14] 101 % of control | [15] 94 % of control

O=C(O)CC1(O)CCCC1
inactive: [16] 100 % of control | [17] 96 % of control | [18] 107 % of control
